What all share (experiment): inhibition of tumour cell growth, NCI panel, 48 h
The test system of experiment [1] is ACHN renal.
The subject of experiment [2] is BT-549 breast.
The subject of experiment [3] is COLO 205 colon.
The subject of experiment [4] is EKVX NSCLC.
The test system of experiment [5] is HOP-62 NSCLC.
Experiment [6] has as its system HT29 colon.
Experiment [7] deals with M14 melanoma.
For experiment [8], the system named is MDA-MB-231 breast.
The subject of experiment [9] is NCI-H460 lung.
Experiment [10] concerns NCI/ADR-RES ovarian.
Experiment [11] has as its system OVCAR-8 ovarian.
The subject of experiment [12] is SF-268 CNS.
Experiment [13] has as its system SF-295 CNS.
For experiment [14], the system named is SF-539 CNS.
The subject of experiment [15] is SK-MEL-28 melanoma.
In experiment [16] the test system is SR leukemia.
Experiment [17] relates to T-47D breast.
Experiment [18] has as its system UACC-257 melanoma.
The subject of experiment [19] is UACC-62 melanoma.
In experiment [20] the test system is IGROV1 ovarian.

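All cell lines were grown in 96-well plates and treated with compound for 48 hours. At the TGI there is no net growth.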

This note sets out measurements from PubChem BioAssay (NCI).

Consider `CC1=C[C@H]([C@H]2C=C(C)C(C(N)=O)=CN2Cc2c(Cl)cccc2Cl)N(Cc2c(Cl)cccc2Cl)C=C1C(N)=O`, for which the TGI in experiment [1], in experiment [2], in [3], in [4], in experiment [5] and in experiment [6] was greater than 75 µM throughout. Besides, the TGI in experiment [7], in experiment [8], in experiment [9], in experiment [10], in experiment [11] and in [12] was greater than 75 µM throughout. Further, the TGI in experiment [13], in [14], in [15], in experiment [16], in experiment [17] and in experiment [18] was greater than 75 µM each time. The TGI in [19] is greater than 75 µM.
On to `O=C1NC(=NCc2ccc(F)cc2)N/C1=C\c1ccccc1Cl`, for which the TGI was found to be 49.1 µM in [1]; 56.8 µM in experiment [2]; 37.5 µM in experiment [3]; 58.2 µM in [4]; 35.3 µM in experiment [5]; 29.5 µM in experiment [6]. Also, the TGI in experiment [20] was greater than 100 µM; in experiment [7], 31.6 µM; in [8], 41.8 µM; in [9], greater than 100 µM; in experiment [10], 86.1 µM; in experiment [11] it was 29.3 µM. For the same molecule, the TGI was 59.9 µM in experiment [12]; 35.8 µM in [13]; greater than 100 µM in experiment [14]; 67.3 µM in [15]; greater than 100 µM in experiment [16]; 29.4 µM in experiment [17]. Moreover, the values for the TGI in [18] and in experiment [19] were greater than 100 µM and 29.8 µM, respectively.
As for `Cc1nc(C)c(N2CCN(S(N)(=O)=O)CC2)c(=O)[nH]1`, the TGI in experiment [1], in experiment [2], in experiment [3], in experiment [4], in [5] and in experiment [6] was greater than 100 µM each time. The TGI in experiment [20], in [7], in experiment [8], in experiment [9], in experiment [10] and in [11] was greater than 100 µM each time. The TGI in experiment [12], in [13], in experiment [14], in [15], in experiment [16] and in experiment [17] was greater than 100 µM throughout. In addition, the TGI in experiment [18] and in experiment [19] was greater than 100 µM each time.
Regarding `CCOC(=O)C(NC(=O)c1ccccc1)(c1ccc(S(=O)(=O)Nc2onc(C)c2C)cc1)C(F)(F)F` (centres undefined), the TGI in experiment [1], in experiment [2], in experiment [3], in experiment [4], in [5] and in [6] was greater than 100 µM each time. The TGI in experiment [20], in experiment [7], in [8], in experiment [9], in experiment [10] and in experiment [11] was greater than 100 µM throughout. The TGI in [12], in [13], in experiment [14], in [15], in [16] and in experiment [17] was greater than 100 µM each time. The TGI in experiment [18] and in [19] was greater than 100 µM each time.
For the molecule `[N-]=[N+]=Nc1c(-c2ccccc2)c(=O)n(-c2ccccc2)c2ccccc12`, the TGI is greater than 100 µM in [1]; greater than 100 µM in [2]; greater than 100 µM in experiment [3]; 48.8 µM in experiment [4]; greater than 100 µM in [5]; greater than 100 µM in [6]. Also, the TGI in experiment [20], in experiment [7], in [8], in [9], in [10] and in experiment [11] was greater than 100 µM throughout. The TGI in experiment [12] was 62.3 µM; in experiment [13], greater than 100 µM; in [14], greater than 100 µM; in experiment [15], greater than 100 µM; in experiment [16], greater than 100 µM; in [17], 82.2 µM. In addition, the TGI in [18] and in [19] was greater than 100 µM each time.
Take `O=C1/C(=C/c2ccccc2)CCc2ccc([N+](=O)[O-])cc21`: the TGI in experiment [1] is greater than 100 µM; in experiment [2] it was greater than 94.4 µM; in experiment [3] it was greater than 100 µM; in [4], greater than 100 µM; in [5], greater than 100 µM; in experiment [6], greater than 100 µM. The TGI in experiment [20] is greater than 100 µM; in experiment [7], greater than 96.4 µM; in experiment [8], greater than 100 µM; in experiment [9], greater than 100 µM; in experiment [10], greater than 100 µM; in [11], greater than 100 µM. Moreover, the TGI in experiment [12] is greater than 100 µM; in experiment [13], greater than 100 µM; in [14] it was greater than 100 µM; in experiment [15] it was greater than 100 µM; in experiment [16], greater than 63.3 µM; in experiment [17], greater than 100 µM. In addition, the TGI in [18] and in experiment [19] was greater than 100 µM in each case.
As for `Cc1ccc(N=C2OP(=O)(Nc3ccc(C)cc3)Oc3ccccc32)cc1` (centres undefined), the TGI in [1], in experiment [2], in [3], in experiment [4], in experiment [5] and in experiment [6] was greater than 100 µM throughout. The TGI in experiment [20], in experiment [7], in experiment [8], in [9], in [10] and in [11] was greater than 100 µM throughout. Besides, the TGI in [12], in [13], in [14], in experiment [15], in experiment [16] and in experiment [17] was greater than 100 µM each time. In addition, the TGI in experiment [18] and in experiment [19] was greater than 100 µM each time.
Regarding `O=S1(=O)c2ccccc2N2C(c3ccccc3)=NOC2(c2ccccc2)CC1c1ccc(Br)cc1` (centres undefined), the TGI in [1], in experiment [2], in experiment [3], in experiment [4], in experiment [5] and in [6] was greater than 100 µM throughout. Further, the TGI in [20], in experiment [7], in experiment [8], in [9], in [10] and in experiment [11] was greater than 100 µM throughout. Besides, the TGI in experiment [12], in experiment [13], in experiment [14], in experiment [15], in experiment [16] and in experiment [17] was greater than 100 µM in each case. Besides, the TGI in experiment [18] and in [19] was greater than 100 µM each time.
With `CC[C@@H]1CSC(/C=C/C2OC3OC(C)(C)OC3C3OC(C)(C)OC23)=N1` (some centres undefined), the TGI turned out to be 21.2 µM in experiment [1]; 13.4 µM in [2]; 18 µM in [3]; 25.6 µM in [4]; 59.4 µM in experiment [5]; 15.9 µM in experiment [6]. For the same molecule, the TGI in [20] is 26 µM; in experiment [7], 22.9 µM; in experiment [8], 25.7 µM; in [9] it was 61.2 µM; in experiment [10] it was 95.7 µM; in experiment [11], 23.8 µM. The TGI in [12] was determined as 18.8 µM; in [13], 46.6 µM; in [14], 30.4 µM; in experiment [15] it was 34.7 µM; in [16] it was 37.4 µM; in [17], 16.8 µM. Also, the TGI in [18] came out at 26.4 µM; in experiment [19] it was 26.8 µM.
`CC(=O)Nn1cnc(C(=N)C#N)c1N`: the TGI in experiment [1], in experiment [2], in experiment [3], in experiment [4], in experiment [5] and in experiment [6] was greater than 100 µM in each case. In addition, the TGI in [20], in experiment [7], in [8], in experiment [9], in [10] and in [11] was greater than 100 µM each time. The TGI in [12], in [13], in experiment [14], in experiment [15], in [16] and in experiment [17] was greater than 100 µM throughout. In addition, the TGI in experiment [18] and in [19] was greater than 100 µM each time.
For `COc1ccc2nc3cc([N+](=O)[O-])ccc3c(Nc3ccc(S(=O)(=O)Nc4ncccn4)cc3)c2c1`, the TGI was greater than 71.8 µM in experiment [1]; greater than 100 µM in experiment [2]; greater than 100 µM in experiment [3]; greater than 100 µM in experiment [4]; greater than 100 µM in experiment [5]; greater than 94.8 µM in experiment [6]. The TGI in experiment [20], in [7], in experiment [8], in experiment [9], in experiment [10] and in experiment [11] was greater than 100 µM in each case. Further, the TGI in experiment [12] was greater than 100 µM; in experiment [13], greater than 100 µM; in [14], greater than 100 µM; in experiment [15] it was greater than 100 µM; in experiment [16], greater than 30.5 µM; in experiment [17], greater than 100 µM. Also, the TGI in experiment [18] and in experiment [19] was greater than 100 µM each time.
Take `O=C(Nc1ccccc1)c1cc(S(=O)(=O)N2CCNC2=O)c(S)cc1Cl`: the TGI in [1], in experiment [2], in [3], in [4], in [5] and in experiment [6] was greater than 100 µM each time. In addition, the TGI in experiment [20], in [7], in experiment [8], in experiment [9], in experiment [10] and in [11] was greater than 100 µM throughout. The TGI in experiment [12], in experiment [13], in experiment [14], in experiment [15], in experiment [16] and in [17] was greater than 100 µM in each case. For the same molecule, the TGI in experiment [18] and in experiment [19] was greater than 100 µM in each case.
`COc1ccccc1/C=N/Nc1nnc2c3ccccc3c3ncccc3c2n1`: the TGI in experiment [1] was greater than 100 µM; in experiment [2] it was greater than 100 µM; in experiment [3], greater than 100 µM; in [4], greater than 100 µM; in [5], 49.2 µM; in experiment [6], greater than 100 µM. The TGI in experiment [20], in experiment [7], in experiment [8], in experiment [9], in experiment [10] and in [11] was greater than 100 µM each time. Moreover, the TGI in experiment [12] was greater than 100 µM; in experiment [13] it was 31.8 µM; in experiment [14], 76 µM; in experiment [15], greater than 100 µM; in [16], greater than 100 µM; in experiment [17], greater than 100 µM. Besides, the TGI in experiment [18] and in experiment [19] was greater than 100 µM throughout.
For `Cc1nc(-n2nc(-c3ccccc3)cc2-c2ccccc2)sc1C(=O)/C=C/c1ccc([N+](=O)[O-])cc1`, the TGI in experiment [1] is greater than 52 µM; in experiment [2], 39.5 µM; in experiment [3], greater than 80.6 µM; in experiment [4], greater than 100 µM; in [5], greater than 94.4 µM; in experiment [6] it was greater than 100 µM. In addition, the TGI in experiment [20] was greater than 100 µM; in experiment [7], 94.7 µM; in experiment [8] it was greater than 100 µM; in experiment [9], greater than 69.3 µM; in experiment [10], greater than 100 µM; in experiment [11] it was greater than 31.6 µM. In addition, the TGI in [12] was greater than 87.6 µM; in experiment [13], greater than 100 µM; in [14], 18.8 µM; in experiment [15], greater than 100 µM; in [16], 24.2 µM; in [17], greater than 100 µM. The TGI was greater than 71.7 µM in experiment [18] and greater than 53.9 µM in experiment [19].
